Values quoted from earlier work as cited in US8748087B2, “Sequence of reverse transcriptase gene and method of use” (Fudan University, priority 2005, dated 2014).

System: HBV
Conditions: patients with chronic hepatitis B

interferon alpha
overall response rates: less than 30%
